Where no end group is shown, it is not given here.
Key:
Assay type in all cases: cell-based, human
cyclins and Cdks = test: Cell cycle protein expression profile of U2OS cells released from nocodazole arrest (Western blot); details: U2OS released from nocodazole block; for timing of cyclin E protein accumulation: 20 μM; for absolute levels of cyclin E protein: up to 24 h post-release
Protocol: Cell synchronization and cell cycle progression analyses. U2OS cells in 6-well dishes were subjected to nocodazole treatment (75 ng/ml) for 22 h. Thereafter, the nocodazole-arrested cultures were released by washing with 1×PBS and grown in DMEM plus 10% FBS containing either vehicle (0.5% DMSO) or 20 μM decoy peptides. Cells were harvested at 4-h intervals for standard Western blot analyses. For the analysis of Geminin protein profile, mock- or cyclin E/Cdk2-transfected U2OS cells were exposed to nocodazole (75 ng/ml) at 3 h post-transfection for 22 h. Denaturing SDS-PAGE and western blotting. Proteins from whole cell lysate and IP complexes were separated using standard denaturing polyacrylamide gel electrophoresis as described previously (Hsu, S. I. H., et al. EMBO J 20, 2273-2285 (2001)). FIG. 7: Cell cycle protein expression profile and protein decay analysis. (A) Protein expression profile of U2OS cells released from nocodazole arrest in the absence or presence of decoy peptide treatment. Protein expression of various cyclins and Cdks was assessed by Western blotting using whole cell lysates from synchronized U2OS cells at 4, 8, 12, 16, 20 and 24 h after release. Coomassie-stained proteins served as loading controls; (B) U2OS cells transfected with vector backbone (vehicle) or pRc/cyclin E and pCMV/Cdk2 (1 μg each), were arrested at the G2/M boundary by exposure to nocodazole (75 ng/ml) and then released to re-enter the cell cycle. Protein expression of cyclin E and Geminin was assessed using whole cell lysates from synchronized U2OS cells at 0, 4, 8, 12, 16 and 20 h after release; (C) Protein decay analysis of Geminin expression in the absence or presence of cyclin E/Cdk2 over-expression (left panel) or in the absence or presence of decoy peptide treatment (right panel) by Western blotting (WB). Coomassie stained proteins served as the loading control (C).

U2OS cells = test: Cell number (Coulter counter) and viability (trypan blue) of U2OS cells; details: for total cell number over time: 50 μM, 0, 48 and 72 h, Coulter counter; for viable cells, trypan blue manual count: 50 μM, 72 h, compared to vehicle or *SCR
Protocol: Determination of cell number and viability. U2OS cells grown in 6-well dishes for 24 h were exposed to 2 ml of growth medium containing either vehicle (0.5% DMSO) or 50 μM decoy peptides for 48 or 72 h. Following treatment, the cells were washed twice with 1×PBS, harvested by trypsinization and re-suspended in 1 ml 1×PBS. 10 μl of cell suspension was taken from each sample and enumerated either electronically or manually. For electronic total cell counts, 10 μl of cell suspension was diluted in 20 ml of isoton® II buffer (Coulter®) and cell number was estimated using an electronic Coulter® counter. For manual counting of viable cells, 10 μl of cell suspension from each sample was mixed with equal volume of trypan blue stain (Sigma, 0.4% w/v in 1×PBS). The number of viable (unstained) cells was enumerated manually using a hemocytometer. FIG. 4: Time-dependent and dose-dependent anti-proliferative effects of the decoy peptides. (A) Time-dependent anti-proliferative effects of the decoy peptides. U2OS cells, exposed to either vehicle (0.5% DMSO) or 50 μM decoy peptides for either 24 or 48 h, were assayed for BrdU incorporation with a colorimetric ELISA assay. Values represent the average +/− standard deviation of two independent experiments; (B) Dose-dependent anti-proliferative effects of the decoy peptides. U2OS cells, exposed to 5, 10, 20 or 50 μM of *SCR (solid line and square), *Br1 (dashed line and triangle) or *Br2 (dashed line and circle) for 48 h, were assayed for BrdU incorporation with a colorimetric ELISA assay. Values represent the average +/− standard deviation of at least two independent experiments; (C) Cell proliferation analysis. Left panel: At 0, 48 and 72 h post decoy peptide treatment, total cell number was determined electronically using a Coulter® counter. Right panel: At 72 h post-treatment, cells were harvested and stained with trypan blue for viable cell count analysis.

[1] = test system: minimal luciferase reporter (pGL3-TATA-Luc); test: TATA-containing minimal luciferase reporter assay in U2OS cells; details: 50 μM, 5 h
Protocol: DNA Transfection and Sequential β-Galactosidase/Luciferase Assay. For luciferase reporter assays, U2OS cells were cultured in 6-well dishes and transfected 24 h later with various reporter plasmids by the calcium precipitation method as previously described (Martin, K., et al. Nature 375, 691-694 (1995)). 24 h following precipitate removal, cells were exposed for 5 h to either vehicle (0.5% DMSO) or 50 μM of decoy peptide, prior to harvesting. Cells were scraped in 200 μl of lysis buffer and a single 10 μl aliquot of lysate was immediately used for sequential measurement of β-galactosidase and luciferase activity using the Dual Light System (Tropix). For protein overexpression experiments, U2OS cells were cultured in 6-well plates at a density of 1×10^5 cells/well and transfected 24 h later with Superfect reagent (QIAGEN).
FIG. 3: Analysis of E2F-responsive transcription in U2OS cells in response to decoy peptide treatment. (A) β-galactosidase/Luciferase assay of U2OS cells co-transfected with 0.1 μg of pCMV/β-galactosidase and 7.5 μg of the indicated luciferase reporter plasmids. Promoter activity of vehicle-treated samples was normalized to 100% and the activities of the peptide-treated samples were expressed relative to the vehicle-treated control. Values represent the average +/− standard deviation of at least two independent experiments; (B) Semi-quantitative RT-PCR analysis on total RNA for dhfr, cyclin-E, cyclin A2, PCNA, DNA Pola and cdc2 expression in U2OS cells exposed for 16 h to either vehicle (0.5% DMSO) or 50 μM of the indicated decoy peptides. H-actin was included as an internal control.
The PHD-bromodomain-interacting function of TRIP-Br proteins co-regulate E2F-dependent transcriptional activity in vivo. […] U2OS cells were chosen for this assay because they express functional E2F-1, DP-1, Rb and detectable levels of endogenous TRIP-Br1 (as assessed by Western blot analysis using a rabbit polyclonal anti-TRIP-Br1 antibody (Hsu, S. I. H., et al. EMBO J 20, 2273-2285 (2001)); data not shown). […]

ERQIKIWFQNRRMKWKKGLDEDGLLLFCEGDTIAD (Peptide containing penetratin sequence from Drosophila and random peptide sequence) [*SCR, reference compound]
timing of cyclin E protein accumulation (cyclins and Cdks): accumulated during mid-to-late G1 between 8 h and 16 h post-release | total cell number over time (U2OS cells): nearly identical increments in cell number over time | transcriptional activity of the minimal reporter [1]: slight activation

ERQIKIWFQNRRMKWKKTGFLTDLTLDDILFADID (ERQIKIWFQNRRMKWKKTGFLTDLTLDDILFADID-NH2) [*Br2]
timing of cyclin E protein accumulation (cyclins and Cdks): premature accumulation of cyclin E beginning in early G1 | absolute levels of cyclin E protein (cyclins and Cdks): dramatically up-regulated and sustained at high levels | total cell number over time (U2OS cells): nearly complete cessation of cell proliferation | viable cells, trypan blue manual count (U2OS cells): significantly fewer viable cells | transcriptional activity of the minimal reporter [1]: did not alter the transcriptional activity of the minimal reporter significantly

ERQIKIWFQNRRMKWKKATGCLLDDGLEGLFEDID (ERQIKIWFQNRRMKWKKATGCLLDDGLEGLFEDID-NH2) [*Br1]
timing of cyclin E protein accumulation (cyclins and Cdks): premature accumulation of cyclin E beginning in early G1 | absolute levels of cyclin E protein (cyclins and Cdks): dramatically up-regulated and sustained at high levels | total cell number over time (U2OS cells): nearly complete cessation of cell proliferation | viable cells, trypan blue manual count (U2OS cells): significantly fewer viable cells | transcriptional activity of the minimal reporter [1]: slight activation
